Legend:
Type in all cases: cell-based, human
monocytes from PBMCs = test: MUC1-ST mediated TAM formation in monocytes from PBMCs, 7 day serum-free culture; settings: PD98059 at 10 μM
Experimental: To further explore the role of MUC1-ST in inducing a TAM-like phenotype, monocytes from PBMCs were plated in serum-free medium, incubated with MUC1-ST or PBS, and cultured for 7 days.
Intracellular calcium flux can lead to activation of the MEK/ERK pathway (Christo et al. (2015) IMMUNOL. AND CELL BIOLOGY 93: 694-704). […] Furthermore, treatment with the MEK inhibitor PD98059 at 10 μM inhibited MUC1-ST mediated TAM formation in monocytes (FIGS. 12B, 12D-12E).

[1] = tested on: MUC1-ST educated monocytes and macrophages; test: Secretion of PAI-1 and M-CSF from MUC1-ST educated monocytes and macrophages with PD98059 or verapamil
Experimental: ELISAs for IL-6, IL-12p70, TGF-β1, PAI-1, M-CSF, EGF, SHP2, phospho-SHP2 (Biotechne) were all carried out as per manufacturer's instructions.
To explore this, the secretion of PAI-1 and M-CSF from MUC1-ST educated monocytes and macrophages was measured following treatments with 1 μM PD98059 or 20 μM verapamil for 20 minutes at 37° C., where indicated.

allogeneic CD8+ T cells = test: Co-culture of MUC1-ST treated macrophages with allogeneic CD8+ T cells; settings: MEK signalling inhibited in the macrophages (FIG. 13K)
Experimental: Thereafter, the effects of MUC1-ST educated macrophages on T cell function were analyzed. Macrophages treated with MUC1-ST were co-cultured with eFluor® 670 labelled allogeneic CD8+ T cells in the presence of absence of anti-Siglec-9 antibody or isotype control. Indeed, macrophages that had been educated with MUC1-ST were decreased in their ability to stimulate the proliferation of allogeneic CD8 T cells (FIG. 11E). […] (FIG. 11F). This profile of expression and functional activity is indicative of tumor-associated macrophages (TAMs), which play a role in promoting tumor progression (Noy et al. (2014) IMMUNITY 41: 49-61; Sousa et al. (2015) BREAST CANCER RES. 17: 101; Qian et al. (2010) CELL 141: 39-45).

THP-1 cells = test: PAI-1, M-CSF and kynurenine in supernatants of differentiated THP-1 cells; settings: THP-1; PD98059
Experimental: THP-1 cells were cultured at a concentration of 1×10^6/mL in AIM V medium. Cells were differentiated using […] phorbol 12-myristate 13-acetate (PMA) on day 0 and 100 ng/mL LPS on day 3 in the presence or absence of 100 μg/mL MUC1-ST or MUC1-T. Cell supernatants were harvested on day 5 and PAI-I concentration measured by ELISA.
Given that IDO catalyzes the rate-limiting step in the metabolism of tryptophan, the tryptophan metabolite kynurenine was detected as follows. 604, supernatant was mixed with 304, 30% trichloroacetic acid (TCA) and incubated for 30 minutes at 50° C. The supernatant was spun at 3000×g and 50 μL was harvested and mixed with 50 μL freshly prepared Ehrlich Reagent (2% p-dimethylaminobenzaldehyde in glacial acetic acid). After 10 minutes optical density (O.D.) was measured at 492 nm, and concentrations were calculated against a kynurenine standard curve. An increase in the tryptophan metabolite kynurenine was observed (FIG. 11D).
The intracellular effects of MUC1-ST binding to Siglec-9 were further explored in the monocytic cell line, THP-1. THP-1 cells were cultured for three days at a concentration of 1×10^6/mL in AIM V medium and differentiated using […] phorbol 12-myristate 13-acetate (PMA) in the presence or absence of 100 μg/mL MUC1-ST. […] THP-1 cells were further treated with DMSO or the MEK/ERK inhibitor PD98059 at 1004, and the concentration of PAI-1, M-CSF and kynurenine in cell supernatants were measured as described above. […] This increase in concentration was blocked by the MEK/ERK inhibitor PD98059 (FIG. 4I).

[2] = tested on: monocyte derived dendritic cells; test: Differentiation of monocytes into dendritic cells; settings: 10 μg/10^6 cells anti-Siglec-9 before MUC1-ST; 10 μg/ml anti-IL-6Rα every 2 days
Experimental: To differentiate monocytes into macrophages, CD14+ cells were plated at a concentration of 1×10^6/mL in AIM V medium (Lonza) with either 50 ng/mL recombinant human M-CSF or 50 ng/mL recombinant human GM-CSF (Bio-Techne). The cytokines were added every 3 days. The cells were incubated at 37° C., 5% CO2 for 7 days to fully differentiate, before being characterized as macrophages via phenotypic flow cytometric analysis. To differentiate monocytes into dendritic cells (moDC), CD14+ cells were plated at a concentration of 1×10^6/mL in AIM V medium with 1500 U/mL recombinant human IL-4 (Bio-Techne) and 400 U/mL human GM-CSF (Bio-Techne) for 6 days to fully differentiate, before being characterized as immature DCs via phenotypic flow cytometric analysis (Epics XL, Beckman Coulter or FACSCalibur, BD Biosciences plus WinMDI or Cellquest software). MoDCs were matured using 1 μg/mL LPS for 24 hours.
In addition, the effects of MUC1-ST on the differentiation of monocytes into dendritic cells were assessed. Briefly, monocytes were treated with MUC1-ST on day 0 and differentiated into immature dendritic cells (DCs) using IL-4 (1500 U/mL) and GM-CSF (400 U/mL) in AIM-V media for 6 days. Immature DCs were matured using 1 μg/mL LPS for 24 hours. […]

CD8+ T cells = test: Co-culture of MUC1-ST educated M-CSF macrophages with CD3/CD28 stimulated autologous T cells; settings: antibody present
Experimental: In addition, primary monocytes were induced to differentiate to macrophages in the presence of MUC1-ST and then co-cultured for 48 hours with CD3/CD28 stimulated autologous CD8+ or CD4+ T cells. T cell proliferation and CD69/CD25 cell surface expression were measured using flow cytometry.

[3] = tested on: M-CSF macrophages differentiated with LPS and IFNγ; test: Differentiation of monocytes into M(LPS+IFNγ) macrophages: CD86 and IL-12; settings: blocking antibodies
Experimental: Both the cell phenotype staining and neutralization studies described in the Examples were performed using the following antibodies (all anti-human): Siglec-9 (Biotechne; 191240), Siglec-9 FITC (Biotechne; 191240), Siglec-3 (Biotechne; 6C5/2), Siglec-7 (Biotechne; AF1138), Siglec-3 FITC (BD; P67.6), Siglec-7 PE (Biolegend; 6-434), Siglec-10 PE (Biolegend; 5G6), Siglec-1 (abcam; 7D2), HLA-DR FITC (Beckman Coulter; IM0463U), CD16 FITC (Biolegend; B73.1), CD14 FITC (BD 555397), CD69 PE (Beckman Coulter; IM1943), CD25 FITC (ABX228FITC), CD86 PE (Beckman Coulter; IM2729U), CD40 FITC (BD 555588), CD83 PE (Beckman Coulter; IM2218), CD163 PE (Biolegend; GHI/61), CXCR1 FITC (BD Pharmongen; 551126), CD45 PC5 (Beckman Coulter; IM2653U), CD206 PE (ebioscience; 19.2), PD-L1 PE (Biolegend; 29E.2A3), CD36 (Santa Cruz; H-300), TGFbetaRII (Bio-Techne; AF-241), IL-6Rα (Tocilizumab; Roche. A generous gift from Dr. Valerie Corrigall). […] At least 1×10^4 events were evaluated using either Epics XL, (Beckman Coulter) or FACSCalibur (BD Biosciences) flow cytometers. […]
Given that IL-6 and NO are known differentiation modulators (Oosterhoff et al. (2012) ONCOIMMUNOLOGY 1: 649-658; Bogdan (2015) TREND IMMUNOL. 36: 161-178) the effects of MUC1-ST on the differentiation of monocytes into macrophages was assessed. […]

[4] = 1 μM PD98059, 20 minutes at 37° C.
[5] = 20 μM verapamil, 20 minutes at 37° C.

## COc1cccc(-c2cc(=O)c3ccccc3o2)c1N [PD98059, reference compound]
Monocytes from PBMCs
  MUC1-ST mediated TAM formation in monocytes: inhibited
[1]; [4]
  secretion of M-CSF: significantly inhibited
  secretion of PAI-1: significantly inhibited
Allogeneic CD8+ T cells
  repression of T cell proliferation by MUC1-ST treated macrophages: could be overcome
THP-1 cells
  MUC1-ST induced increase in PAI-1, kynurenine and M-CSF concentration: blocked

## COc1ccc(CCN(C)CCCC(C#N)(c2ccc(OC)c(OC)c2)C(C)C)cc1OC (stereo not shown) [verapamil]
[1]; [5]
  secretion of M-CSF: significantly inhibited
  secretion of PAI-1: significantly inhibited

## Tocilizumab [anti-IL-6Rα, reference compound]
[2]
  reversal of the effect of MUC1-ST on differentiation of dendritic cells: significantly reverse
CD8+ T cells
  reversal of the inhibition of CD8+ T cell activation: could be reversed
[3]
  rescue of MUC1-ST induced lowering of CD86 and IL-12: partially rescued

Source: patent publication US20190211099A1, “METHODS AND COMPOSITIONS FOR TREATING CANCER WITH SIGLEC-9 ACTIVITY MODULATORS” (KING'S COLLEGE LONDON, priority 2016, published 2019)
